In patent US20260317340A1, “COMPOUNDS, COMPOSITIONS, AND METHODS OF TREATING DISORDERS” (Chengdu Anticancer Bioscience, Ltd., priority 2023, published 2026):
Where two headings read alike, the source gives them in different places.

Experiments:
[1] = tested on: RPE-Neo or RPE-MYC or RPE-MYC expressing an EGFP-Histone 2B fusion protein; assay: Phenotypic screening assay: arrest in mitosis, change in DNA content (polyploidy), cell death; type: cell-based; settings: 20 nM to 20 μM, 24, 48 or 72 hours
Description: (§1) Human cancer cell lines were obtained from ATCC and cultured in DMEM (Gibco, Cleveland, TN, USA) supplemented with 5% fetal bovine serum (Gibco), penicillin (100 U/mL)-streptomycin (100 μg/mL) (Gibco, Cat. No. 15140-122), 2 mM L-glutamine (Gibco, 200 mM solution, Cat. No. 25030081), and 1 mM sodium pyruvate (Gibco, 100 mM solution, Cat. No. 11360070) at 37° C. in a humidified incubator that was maintained at 5% CO2.
Screening was conducted as described before (Li et al. 2019). Briefly, RPE-Neo or RPE-MYC or RPE-MYC expressing an EGFP-Histone 2B fusion protein were passaged as batches of 96-well plates, 18-24 hours before exposure to the chemical compounds of the present disclosure at concentrations from 20 nM to 20 μM. At 24, 48 or 72 hours after initiation of treatment, cells were analyzed for either an arrest in mitosis or a change in DNA content by GE IN-Cell Analyzer 2000. MTT assays of cellular proliferation were performed as previously described (Li et al. 2019).
(§2) As set forth in table 2 below, an values of greater than or equal to 1 nM and less than or equal to 1.0 μM is marked “A”; a value greater than 1.00 μM and less than or equal to 10.0 μM is marked “B”; a value greater than 10.0 μM and less than or equal to 30.0 μM is marked “C”; and a value greater than 30.0 μM and less than 1000 μM is marked “D.”

[2] = tested on: RPE-Neo or RPE-MYC cells; assay: MTT assay of cellular proliferation (proliferative arrest); type: cell-based; settings: read-out: Min. Effective conc. for Proliferative arrest (>50%)
Description: as §1
Screening was conducted as described before (Li et al. 2019). Briefly, RPE-Neo or RPE-MYC or RPE-MYC expressing an EGFP-Histone 2B fusion protein were passaged as batches of 96-well plates, 18-24 hours before exposure to the chemical compounds of the present disclosure at concentrations from 20 nM to 20 μM. At 24, 48 or 72 hours after initiation of treatment, cells were analyzed for either an arrest in mitosis or a change in DNA content by GE IN-Cell Analyzer 2000. MTT assays of cellular proliferation were performed as previously described (Li et al. 2019). […]
as §2

[3] = read-out: Min. Effective conc. for Along with Cell Death
[4] = ≥5%, read-out: Min. Effective conc. for Mitotic Arrest (≥5%)
[5] = ≥5%, read-out: Min. Effective conc. for Polyploidy (≥5%)

Measured: minimal effective concentration

COc1ccc(C(=O)N2CCC(c3ncc(C)o3)=Cc3ccc(-c4cnn(CC(C)(C)O)c4)cc32)cc1F [Compound 106, (3-Fluoro-4-methoxyphenyl)(8-(1-(2-hydroxy-2-methylpropyl)-1H-pyrazol-4-yl)-4-(5-methyloxazol-2-yl)-2,3-dihydro-1H-benzo[b]azepin-1-yl)methanone]
0.001 to 1 µM: [1]; [3] | [1]; [4] | [1]; [5] | [2]

CCS(=O)(=O)N1CC(CC#N)(n2cc(-c3ccc4c(c3)N(Cc3ccc(OC)cc3)C(=O)CC(c3ncc(C)o3)=C4)cn2)C1 [Compound 84, 2-(1-(Ethylsulfonyl)-3-(4-(1-(4-methoxybenzyl)-4-(5-methyloxazol-2-yl)-2-oxo-2,3-dihydro-1H-benzo[b]azepin-8-yl)-1H-pyrazol-1-yl)azetidin-3-yl)acetonitrile]
0.001 to 1 µM: [1]; [3] | [1]; [4] | [1]; [5] | [2]

COc1ccc(CN2C(=O)CC(c3ncc(C)o3)=Cc3ccc(-c4ccsc4)cc32)cc1 [Compound 28, 1-(4-methoxybenzyl)-4-(5-methyloxazol-2-yl)-8-(thiophen-3-yl)-1,3-dihydro-2H-benzo[b]azepin-2-one]
0.001 to 1 µM: [1]; [3] | [1]; [4] | [1]; [5] | [2]

COc1ccc(CN2C(=O)CC(c3ncc(C)o3)=Cc3ccc(-c4cnn(C5(CC#N)CN(S(=O)(=O)C6CC6)C5)c4)cc32)cc1 [Compound 89, 2-(1-(Cyclopropylsulfonyl)-3-(4-(1-(4-methoxybenzyl)-4-(5-methyloxazol-2-yl)-2-oxo-2,3-dihydro-1H-benzo[b]azepin-8-yl)-1H-pyrazol-1-yl)azetidin-3-yl)acetonitrile]
0.001 to 1 µM: [1]; [3] | [1]; [4] | [1]; [5] | [2]

COc1ccc(CN2C(=O)CC(c3ncc(C)o3)=Cc3ccc(-c4cnn(C(C)=O)c4)cc32)cc1 [Compound 81, 8-(1-Acetyl-1H-pyrazol-4-yl)-1-(4-methoxybenzyl)-4-(5-methyloxazol-2-yl)-1,3-dihydro-2H-benzo[b]azepin-2-one]
0.001 to 1 µM: [1]; [3] | [1]; [4] | [1]; [5] | [2]

COc1ccc(CN2C(=O)CC(c3ncc(C)o3)=Cc3ccc(-c4cnn(CC(N)=O)c4)cc32)cc1 [Compound 50, 2-(4-(1-(4-methoxybenzyl)-4-(5-methyloxazol-2-yl)-2-oxo-2,3-dihydro-1H-benzo[b]azepin-8-yl)-1H-pyrazol-1-yl)acetamide]
0.001 to 1 µM: [1]; [3] | [1]; [4] | [1]; [5] | [2]

COc1ccc(CN2C(=O)CC(c3ncc(C)o3)=Cc3ccc(-c4cnn(C5CCNCC5)c4)cc32)cc1 [Compound 35, 1-(4-methoxybenzyl)-4-(5-methyloxazol-2-yl)-8-(1-(piperidin-4-yl)-1H-pyrazol-4-yl)-1,3-dihydro-2H-benzo[b]azepin-2-one]
0.001 to 1 µM: [1]; [3] | [1]; [4] | [1]; [5] | [2]

CCOC(=O)C(C)n1cc(-c2ccc3c(c2)N(Cc2ccc(OC)cc2)C(=O)CC(c2ncc(C)o2)=C3)cn1 (stereo not shown) [Compound 74, Ethyl 2-(4-(1-(4-methoxybenzyl)-4-(5-methyloxazol-2-yl)-2-oxo-2,3-dihydro-1H-benzo[b]azepin-8-yl)-1H-pyrazol-1-yl)propanoate]
0.001 to 1 µM: [1]; [3] | [1]; [4] | [1]; [5] | [2]

Cc1cnc(C2=Cc3ccc(-c4cnn(C5CC5)c4)cc3N(Cc3ccc(C)c(F)c3)C(=O)C2)o1 [Compound 21, 8-(1-Cyclopropyl-1H-pyrazol-4-yl)-1-(3-fluoro-4-methylbenzyl)-4-(5-methyloxazol-2-yl)-1,3-dihydro-2H-benzo[b]azepin-2-one]
0.001 to 1 µM: [1]; [3] | [1]; [4] | [1]; [5] | [2]

[2H]C([2H])([2H])Oc1ccc(CN2C(=O)CC(c3ncc(C)o3)=Cc3ccc(-c4cnn(CC(C)(C)O)c4)cc32)cc1 [Compound 100, 8-(1-(2-Hydroxy-2-methylpropyl)-1H-pyrazol-4-yl)-1-(4-(methoxy-d3)benzyl)-4-(5-methyloxazol-2-yl)-1,3-dihydro-2H-benzo[b]azepin-2-one]
0.001 to 1 µM: [1]; [3] | [1]; [4] | [1]; [5] | [2]

COc1ccc(CN2C(=O)CC(c3ncc(C)o3)=Cc3ccc(-c4cccnc4)cc32)cc1 [Compound 39, 1-(4-methoxybenzyl)-4-(5-methyloxazol-2-yl)-8-(pyridin-3-yl)-1,3-dihydro-2H-benzo[b]azepin-2-one]
0.001 to 1 µM: [1]; [3] | [1]; [4] | [1]; [5] | [2]

COc1ccc(CN2C(=O)CC(c3ncc(C)o3)=Cc3ccc(-c4cnn(CC(=O)N(C)C)c4)cc32)cc1 [Compound 73, 2-(4-(1-(4-Methoxybenzyl)-4-(5-methyloxazol-2-yl)-2-oxo-2,3-dihydro-1H-benzo[b]azepin-8-yl)-1H-pyrazol-1-yl)-N,N-dimethylacetamide]
0.001 to 1 µM: [1]; [3] | [1]; [4] | [1]; [5] | [2]

COC(=O)C1=Cc2ccccc2N(Cc2ccc(C)c(F)c2)C(=O)C1 [Compound 12, methyl 1-(3-fluoro-4-methylbenzyl)-2-oxo-2,3-dihydro-1H-benzo[b]azepine-4-carboxylate]
0.001 to 1 µM: [1]; [3] | [1]; [4] | [1]; [5] | [2]

COc1ccc(CN2C(=O)CC(c3ncc(C)o3)=Cc3ccc(-c4ccoc4)cc32)cc1 [Compound 29, 8-(furan-3-yl)-1-(4-methoxybenzyl)-4-(5-methyloxazol-2-yl)-1,3-dihydro-2H-benzo[b]azepin-2-one]
0.001 to 1 µM: [1]; [3] | [1]; [4] | [1]; [5] | [2]

COc1ccc(CN2C(=O)CC(c3ncc(C)o3)=Cc3ccc(-c4cncn4C)cc32)cc1 [Compound 32, 1-(4-methoxybenzyl)-8-(1-methyl-1H-imidazol-5-yl)-4-(5-methyloxazol-2-yl)-1,3-dihydro-2H-benzo[b]azepin-2-one]
0.001 to 1 µM: [1]; [3] | [1]; [4] | [1]; [5] | [2]

COc1ccc(CN2C(=O)CC(c3ncc(C)o3)=Cc3ccc(-c4ccc(C5CC5)nc4)cc32)cc1 [Compound 43, 8-(6-cyclopropylpyridin-3-yl)-1-(4-methoxybenzyl)-4-(5-methyloxazol-2-yl)-1,3-dihydro-2H-benzo[b]azepin-2-one]
0.001 to 1 µM: [1]; [3] | [1]; [4] | [1]; [5] | [2]
